The source of these data is patent publication US11401278B2, “Macrocyclic indole derivatives” (The Broad Institute, Inc., priority 2017, dated 2022).

Counter-ions that a name gives are not always drawn.

The target in this test is BCL-XL (Homo sapiens (Human), UniProt Q07817). The test can be described thus: Protein-protein interaction assay BCL-XL/Bad BH3 peptide (BCL-XL assay, TR-FRET). The test is classed as binding. To be noted: His-BCL-XL / Bad BH3 peptide, median. The essentials: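 His-tagged human BCL-XL (aa 1-212, 1 nM final) was preincubated 10 min at 22 °C with compound (11 concentrations, 0.1 nM–20 μM), then biotinylated Bad BH3 peptide (1 nM) and TR-FRET reagents were added. Incubation: 1 h at 22 °C, then overnight at 4 °C, pH 7 Tris buffer. IC50 from 4-parameter fit of 665/620 ratio.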
BCL-XL, sequence (Q07817 other isoform, or with tags, fused parts or gaps): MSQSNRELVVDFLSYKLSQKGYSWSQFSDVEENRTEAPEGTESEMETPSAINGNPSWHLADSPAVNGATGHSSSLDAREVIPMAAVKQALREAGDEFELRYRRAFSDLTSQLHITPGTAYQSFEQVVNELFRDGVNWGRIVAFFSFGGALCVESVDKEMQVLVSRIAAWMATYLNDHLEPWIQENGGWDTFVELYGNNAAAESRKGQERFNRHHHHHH
A general note: Time-resolved FRET reads energy transfer from a long-lived donor to a nearby acceptor.
Usually IC50 stands for the concentration needed to halve the response being measured. The low end stands for greater potency, the high end for weaker potency. In turn, `CCc1c2c(nn1C)CN(C)S(=O)(=O)CCCn1c(C(=O)O)c(CCCOc3cccc4cc(F)ccc34)c3ccc(Cl)c-2c31` (single isomer, unassigned; enantiomer 1) [Example 36, (+)-4-chloro-3-ethyl-7-{3-[(6-fluoronaphthalen-1-yl)oxy]propyl}-2,14-dimethyl-13,13-dioxo-10,11,12,13,14,15-hexahydro-2H-13lambda^6-pyrazolo[3′,4′:4,5][1,2,8]thiadiazacycloundecino-[6,7,8-hi]indole-8-carboxylic acid (Enantiomer 1)] displayed an IC50 above 20 µM.
The value for `CCc1c2c(nn1C)CN(C)S(=O)(=O)CCCn1c(C(=O)O)c(CCCOc3ccc(F)c4ccccc34)c3ccc(Cl)c-2c31` [Example 24, (rac)-13-Chloro-12-ethyl-1-(34(4-fluoronaphthalen-1-yl)oxy)propyl)-8,11-dimethyl-4,5,6,8,9,11-hexahydropyrazolo[3′,4′:4,5][1,2,8]thiadiazacycloundecino[6,7,8-hi]indole-2-carboxylic acid 7,7-dioxide] was above 20 µM.
`Cc1c2c(nn1C)CN(CCN1CCOCC1)S(=O)(=O)CCCn1c(C(=O)O)c(CCCOc3cccc4ccccc34)c3cccc-2c31` (single isomer, unassigned; enantiomer 2) [Example 3, 2,3-Dimethyl-14-[2-(morpholin-4-yl)ethyl]-7-{3-[(naphthalen-1-yl)oxy]propyl}-13,13-dioxo-10,11,12,13,14,15-hexahydro-2H-13λ^6-pyrazolo[3′,4′:4,5][1,2,8]thiadiazacycloundecino-[6,7,8-hi]indole-8-carboxylic acid-N-ethylethanamine salt (Enantiomer 2)] gave an IC50 above 20 µM.
The value for `CCc1c2c(nn1C)CN(C)S(=O)(=O)CCCn1c(C(=O)O)c(CCCOc3cc(C)c(Cl)c(C)c3)c3ccc(F)c-2c31` (racemic) [Example 33, (rac)-1-(3-(4-Chloro-3,5-dimethylphenoxy)propyl)-12-ethyl-13-fluoro-8,11-dimethyl-5,6,9,11-tetrahydro-4H,8H-pyrazolo[3′,4′:4,5][1]thia[2,8]diazacycloundecino[6,7,8-hi]indole-2-carboxylic acid 7,7-dioxide] was above 20 µM.
The value for `CCc1c2c(nn1C)CN(C)S(=O)(=O)CCCn1c(C(=O)O)c(CCCOc3cccc4cc(F)ccc34)c3ccc(F)c-2c31` (single isomer, unassigned; enantiomer 1) [Example 8, (+)-3-Ethyl-4-fluoro-7-{3-[(6-fluoronaphthalen-1-yl)oxy]propyl}-2,14-dimethyl-13,13-dioxo-10,11,12,13,14,15-hexahydro-2H-13λ^6-pyrazolo[3′,4′:4,5][1,2,8]thiadiazacycloundecino-[6,7,8-hi]indole-8-carboxylic acid (Enantiomer 1)] was above 20 µM; that for `Cc1c2c(nn1C)CN(C)S(=O)(=O)CCCn1c(C(=O)O)c(CCCOc3cccc4ccccc34)c3ccc(Cl)c-2c31` (racemic) [Example 4, (rac)-4-Chloro-2,3,14-trimethyl-7-{3-[(naphthalen-1-yl)oxy]propyl}-13,13-dioxo-10,11,12,13,14,15-hexahydro-2H-13λ^6-pyrazolo[3′,4′:4,5][1,2,8]thiadiazacycloundecino-[6,7,8-hi]indole-8-carboxylic acid] was above 20 µM.
In turn, `Cc1c2c(nn1C)CNS(=O)(=O)CCCn1c(C(=O)O)c(CCCOc3cccc4cc(F)ccc34)c3ccc(Cl)c-2c31` (single isomer, unassigned; enantiomer 1) [Example 51, 4-chloro-7-{3-[(6-fluoronaphthalen-1-yl)oxy]propyl}-2,3-dimethyl-13,13-dioxo-10,11,12,13,14,15-hexahydro-2H-13lambda^6-pyrazolo[3′,4′:4,5][1,2,8]thiadiazacycloundecino[6,7,8-hi]indole-8-carboxylic acid (Enantiomer 1)] had an IC50 above 20 µM.
Take `CCc1c2c(nn1C)CN(CCN1CCCCC1)S(=O)(=O)CCCn1c(C(=O)O)c(CCCOc3cccc4ccccc34)c3cccc-2c31` (racemic) [Example 14, (rac)-12-Ethyl-11-methyl-1-(3-(naphthalen-1-yloxy)propyl)-8-(2-(piperidin-1-yl)ethyl)-4,5,6,8,9,11-hexahydropyrazolo[3′,4′:4,5][1,2,8]thiadiazacycloundecino[6,7,8-hi]indole-2-carboxylic acid 7,7-dioxide 2,2,2-trifluoroacetic acid salt]: the IC50 is above 20 µM.
The value for `Cc1c2c(nn1C)C(CCN1CCOCC1)N(C)S(=O)(=O)CCCn1c(C(=O)O)c(CCCOc3cccc4ccccc34)c3cccc-2c31` (racemic) [Example 44, (rac)-2,3,14-trimethyl-15-[2-(rac)-(morpholin-4-yl)ethyl]-7-[3-(1-naphthyloxy)propyl]-11,12,14,15-tetrahydro-2H,10H-pyrazolo[3′,4′:4,5][1,2,8]thiadiazacycloundecino[6,7,8-hi]indole-8-carboxylic acid 13,13-dioxide (Mixture of Stereoisomers)] was above 20 µM; that for `CCc1c2c(nn1C)C(C)N(C)S(=O)(=O)CCCn1c(C(=O)O)c(CCCOc3cccc4ccccc34)c3cccc-2c31` (racemic) [Example 18, 12-Ethyl-8,9,11-trimethyl-1-(3-(naphthalen-1-yloxy)propyl)-5,6,9,11-tetrahydro-4H,8H-pyrazolo[3′,4′:4,5][1]thia[2,8]diazacycloundecino[6,7,8-hi]indole-2-carboxylic acid 7,7-dioxide (Mixture of Stereoisomers)] was above 20 µM; that for `CCc1c2c(nn1C)CN(CCCN1CCCC1=O)S(=O)(=O)CCCn1c(C(=O)O)c(CCCOc3cccc4ccccc34)c3cccc-2c31` (racemic) [Example 13, (rac)-12-Ethyl-11-methyl-1-(3-(naphthalen-1-yloxy)propyl)-8-(3-(2-oxopyrrolidin-1-yl)propyl)-5,6,9,11-tetrahydro-4H,8H-pyrazolo[3′,4′:4,5][1]thia[2,8]diazacycloundecino[6,7,8-hi]indole-2-carboxylic acid 7,7-dioxide] was above 20 µM.
The value for `CCc1c2c(nn1C)CN(C)S(=O)(=O)CCCn1c(C(=O)O)c(CCCOc3cccc4c3CCC4)c3ccc(F)c-2c31` (racemic) [Example 32, (rac)-1-(3-((2,3-Dihydro-1H-inden-4-yl)oxy)propyl)-12-ethyl-13-fluoro-8,11-dimethyl-5,6,9,11-tetrahydro-4H,8H-pyrazolo[3′,4′:4,5][1]thia[2,8]diazacycloundecino[6,7,8-hi]indole-2-carboxylic acid 7,7-dioxide] was above 20 µM; that for `CCc1c2c(nn1C)CN(CCN1CCOCC1)S(=O)(=O)CCCn1c(C(=O)O)c(CCCOc3cccc4cc(F)ccc34)c3ccc(Cl)c-2c31` [Example 77, (rac)-13-chloro-12-ethyl-1-(3-((6-fluoronaphthalen-1-yl)oxy)propyl)-11-methyl-8-(2-morpholinoethyl)-5,6,9,11-tetrahydro-4H,8H-pyrazolo[3′,4′:4,5][1]thia[2,8]diazacycloundecino[6,7,8-hi]indole-2-carboxylic acid 7,7-dioxide] was above 20 µM.
In the case of `CCc1c2c(nn1C)CN(C)S(=O)(=O)CCCn1c(C(=O)O)c(CCCOc3cccc4ccccc34)c3ccc(Cl)c-2c31` [Example 20, (rac)-13-Chloro-12-ethyl-8,11-dimethyl-1-(3-(naphthalen-1-yloxy)propyl)-5,6,9,11-tetrahydro-4H,8H-pyrazolo[3′,4′:4,5][1]thia[2,8]diazacycloundecino[6,7,8-hi]indole-2-carboxylic acid 7,7-dioxide] it was above 20 µM.
Turning to `CCc1c2c(nn1C)C(CCC1CCOCC1)N(C)S(=O)(=O)CCCn1c(C(=O)O)c(CCCOc3cccc4cc(F)ccc34)c3ccc(Cl)c-2c31` (single isomer, unassigned; enantiomer 1) [Example 61, (+)-4-chloro-3-ethyl-7-{3-[(6-fluoronaphthalen-1-yl)oxy]propyl}-2,14-dimethyl-15-[2-(oxan-4-yl)ethyl]-13,13-dioxo-10,11,12,13,14,15-hexahydro-2H-13lambda^6-pyrazolo[3′,4′:4,5][1,2,8]thiadiazacycloundecino[6,7,8-hi]indole-8-carboxylic acid (Enantiomer 1)], the IC50 is above 20 µM.
